From PubChem BioAssay (NCI)
Several values for one entry are separate records, joined by “and”; a condition that tells them apart may be missing. Equal values may be shown once.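 The compound was tested at five concentrations on cells cultured in 96-well plates, with a 48-hour exposure period. GI50: concentration for 50% inhibition of growth. At the TGI there is no net growth.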 Where a SMILES comes first, the peptide text is derived from it. [ ]: non-standard residue; d: D form. The star is where a group is joined. ξ: configuration not given here. X6 = FC(F)(F)c1cc(NC(=S)*)cc(C(F)(F)F)c1; ξF = NC(Cc1ccccc1)C(=O)O

Key:
Test in all cases: growth of human tumour cells (NCI), 48 h
786-0 renal = test system: 786-0 renal
MALME-3M melanoma = test system: MALME-3M melanoma
NCI-H226 lung = test system: NCI-H226 lung
NCI-H23 lung = test system: NCI-H23 lung
NCI-H522 lung = test system: NCI-H522 lung
OVCAR-8 ovarian = test system: OVCAR-8 ovarian
RXF 393 renal = test system: RXF 393 renal
SK-MEL-5 melanoma = test system: SK-MEL-5 melanoma
SNB-19 CNS = test system: SNB-19 CNS
SNB-75 CNS = test system: SNB-75 CNS

Row | Compound | TGI (786-0 renal) [µM] | TGI (MALME-3M melanoma) | TGI (NCI-H226 lung) [µM] | TGI (NCI-H23 lung) [µM] | TGI (NCI-H522 lung) | TGI (OVCAR-8 ovarian) [µM] | TGI (RXF 393 renal) | TGI (SK-MEL-5 melanoma) [µM] | TGI (SNB-19 CNS) [µM] | TGI (SNB-75 CNS) [µM] | GI50 (786-0 renal) | GI50 (MALME-3M melanoma) | GI50 (NCI-H226 lung) [µM] | GI50 (NCI-H23 lung) | GI50 (NCI-H522 lung) | GI50 (OVCAR-8 ovarian) [µM] | GI50 (RXF 393 renal) | GI50 (SK-MEL-5 melanoma) [µM] | GI50 (SNB-19 CNS) | GI50 (SNB-75 CNS) [µM]
1 | CCCCCCCCCCCCCCCCCC(CCCCCCCCCCCCCCCCC)OP(=O)(O)O | > 100 | > 100 µM | > 100 | > 100 | > 100 µM | > 100 | > 100 µM | > 100 | > 100 | > 100 | – | – | – | – | – | – | – | – | – | –
2 | Cn1cnc([N+](=O)[O-])c1Sc1nnc(-c2cccnc2)n1C | 41.6 | 33.2 µM | > 81.6 | 51.7 | 15.2 µM | 59.7 | 23.9 µM | 35.4 | > 100 | > 100 | – | – | – | – | – | – | – | – | – | –
3 | O=C1C=C(Cl)C(=O)C(c2ccc(Cl)cc2)=C1 | 38.1 | 39 µM | 85.5 | 67.3 | 47.4 µM | 40.7 | 34 µM | 34.3 | > 100 | 59.8 | – | – | – | – | – | – | – | – | – | –
4 | O=S1(=O)c2ccccc2NC(c2ccc3ccccc3c2)CC1c1ccccc1F (stereo unspecified) | > 100 | > 100 µM | > 100 | > 100 | > 100 µM | > 100 | > 100 µM | > 100 | > 100 | > 100 | – | – | – | – | – | – | – | – | – | –
5 | Cc1coc2c1CC1(C)C(CCC(O)C1C)C2 (stereo unspecified) | > 100 | > 100 µM | > 100 | > 100 | > 100 µM | > 100 | > 100 µM | > 100 | > 100 | > 100 | – | – | – | – | – | – | – | – | – | –
6 | COC(=O)[C@@H](NC(=O)CNC(=O)[C@H]1CCCN1C(=O)C(Cc1ccccc1)NC(=S)Nc1cc(C(F)(F)F)cc(C(F)(F)F)c1)C(C)C (stereo partly specified) (X6-[ξF][dP]GV-OMe) | 4.34 | 15.1 µM | 3.42 | 8.02 | 8.65 µM | 53.6 | 3.5 µM | 2.79 | 9.49 | 3.49 | 2.12 µM | 3.88 µM | 1.65 | 2.53 µM | 3.04 µM | 3.75 | 1.95 µM | 1.45 | 2.56 µM | 1.52
7 | CCCCCN(CCCCC)CCCNc1c2c(nc3ccc(Cl)cc13)CCCC2 | 13.6 | 6.01 µM | 6.71 | 6.73 | 3.86 µM | 8.88 | 7.95 µM | 3.34 | 18.4 | 11.9 | 3.91 µM | 2.54 µM | 2.05 | 2.12 µM | 1.74 µM | 2.9 | 2.82 µM | 1.82 | 4.96 µM | 2.38
8 | CCOC(=O)[C@]1(OC(C)=O)C[C@H](OC(C)=O)[C@@H](C(F)COP(=O)(OCc2ccccc2)OCc2ccccc2)O1 (stereo partly specified) | > 100 | 33.8 µM and > 100 µM | > 100 | > 100 | 93.7 µM and > 100 µM | > 100 | 68.2 µM and > 100 µM | > 100 | > 100 | > 100 | 39 µM and > 100 µM | 13.9 µM and > 100 µM | – | 48.9 µM and > 100 µM | 28.3 µM and > 100 µM | – | 24.5 µM and > 100 µM | – | 32.9 µM and > 100 µM | –
